Data taken from US20230098111A1, “COMPOSITIONS AND METHODS TO TREAT NEUROLOGICAL DISEASES” (University of Southern California, priority 2020, published 2023).

System: C9ORF72 dipeptide repeat proteins
Assay: DPR levels in C9ORF72-BAC mice
Assay type: in vivo
Procedure: DRP aggregates (Poly(GR) red) accumulate in the cells (white outline) of C9-BAC mice.
(A) Mass spectrometry analysis of Optineurin (OPTN) levels in the cerebrospinal fluide (CSF) of mice 2 hours after direct intracerebroventral injection of a vehicle control or apilimod. n=3 mice per group. The ratio of Optineurin in the CSF of apilimod:vehicle-injected mice is shown. (B) Poly(GR)+ DPR punctae in wild-type or C9ORF72 mice treated with intracerebroventricular injection of apilimod for 48 hours. Mean+/−s.e.m. Data points are individual neurons taken across 3 mice per group. One-way ANOVA. […] Unpaired t-test. (D) Pikfyve qRT-PCR of whole brain. n=3 mice per group at postnatal day 7. Unpaired t-test. (E) Gait impairment scoring in wild-type (WT) and TDP-43 homozygous mice treated with a negative control (NC) ASO or Pikfyve ASO at postnatal day 1. Mean+/−s.e.m. Unpaired t-test at each time point between the negative control and Pikfyve ASO conditions for TDP-43 mice. A score of 0 indicates no phenotype and 4 indicates the most severe phenotype. (F) Vehicle or GW4869 were delivered by intraperitoneal injection every 48 h starting from day 6 in negative control and Pikfyve ASO-treated mice. Mean+/−s.e.m. One-way ANOVA at each time point between the four conditions. *p<0.05, **p<0.01, ***p<0.001, ****p<0.0001.
PIKFYVE inhibition rescues neurodegeneration in vivo. […] Since TARDBP overexpressing mice show motor deficits and neurodegeneration, we used TARDBP mice to test the efficacy of Pikfyve suppression.
Determining whether PIKfyve-targeting ASOs can reverse ALS disease progression in vivo. To determine if PIKfyve-targeting ASOs can reverse ALS disease processes in vivo, can PIKfyve ASOs lower levels of C9ORF72 dipeptide repeat proteins in mice. Dipeptide repeat proteins are generated from the C9ORF72 repeat expansion by repeat-associated non-AUG-dependent translation and are neurotoxic.
To determine if ASO-mediated Pikfyve suppression lowers C9ORF72 poly(GR) levels in mice, Pikfyve ASOs were injected into the hippocampus of adult C9ORF72-BAC mice, which harbor a C9ORF72 repeat expanded transgene and accumulate poly(GR)+ aggregates in hippocampal neurons.

[1] = injection of apilimod into the hippocampus

For `Cc1cccc(/C=N/Nc2cc(N3CCOCC3)nc(OCCc3ccccn3)n2)c1` [apilimod], the “levels of poly(GR) in C9ORF72-BAC mice” value [1] was “reduced levels”, the “levels of poly(PR) in C9ORF72-BAC mice” value [1] was “reduced levels” and the “DPR levels in C9ORF72-BAC mice” value (intracerebroventricular injection of apilimod) was “lowered DPR levels”.
